Results as given in patent publication US20150218172A1, “Pyrrolo[2,3-D]Pyrimidine Tropomyosin-Related Kinase Inhibitors” (PFIZER LIMITED, priority 2012, published 2015).

The compounds below were run against T1, TrkA (Homo sapiens, UniProt P04629) (assay: Isolated TRK enzyme assay (HTRF KinEASE-TK kit), PV3144 TrkA enzyme assay). Details: PV3144 TrkA enzyme assay, recombinant His-tagged cytoplasmic domain aa 441-796, 4 nM enzyme, 40 uM ATP; arithmetic mean where more than one reading; read-out: Trka enzyme (IC50).
T1 construct: aa 441-796; His; purchased Invitrogen PV3144
Assay type: biochemical
Summary of the method: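 Recombinant His-tagged cytoplasmic domain of human TrkA, preactivated with ATP for 20 min, then 20 min with compound before biotinylated TK substrate (1 uM final) at room temperature. HTRF read at 665/620 nm; % inhibition normalised to reference-compound and DMSO controls, IC50 from sigmoid fit, mean of replicates.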

T1 sequence (P04629 441-796): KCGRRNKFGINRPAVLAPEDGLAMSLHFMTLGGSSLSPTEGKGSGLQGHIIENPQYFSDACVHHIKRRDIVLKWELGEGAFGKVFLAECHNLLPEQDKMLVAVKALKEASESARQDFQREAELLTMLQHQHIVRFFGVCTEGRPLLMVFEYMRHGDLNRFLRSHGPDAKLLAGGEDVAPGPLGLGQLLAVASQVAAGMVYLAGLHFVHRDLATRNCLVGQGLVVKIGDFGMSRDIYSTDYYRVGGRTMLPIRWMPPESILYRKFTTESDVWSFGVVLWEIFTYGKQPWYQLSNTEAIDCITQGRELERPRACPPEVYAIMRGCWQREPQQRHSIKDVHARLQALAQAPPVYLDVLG

Compound | IC50 [µM]
Cc1cc(C)n(CC(=O)Nc2cc(C(=O)c3cn(C(CO)CO)c4ncncc34)ccn2)n1 [Example 112, 2-(3,5-Dimethyl-1H-pyrazol-1-yl)-N-[4-({7-[2-hydroxy-1-(hydroxymethyl)ethyl]-7H-pyrrolo[2,3-d]pyrimidin-5-yl}carbonyl)pyridin-2-yl]acetamide] | 0.682
CC(C)n1cc(C(=O)c2ccnc(NC(=O)Cn3cc(C(F)(F)F)nn3)c2)c2cncnc21 [Example 116, N-(4-{[7-(propan-2-yl)-7H-pyrrolo[2,3-d]pyrimidin-5-yl]carbonyl}pyridin-2-yl)-2-[4-(trifluoromethyl)-1H-1,2,3-triazol-1-yl]acetamide] | 0.0597
COCc1cn(CC(=O)Nc2cc(C(=O)c3cn(C(C)C)c4ncncc34)ccn2)nn1 [Example 117, 2-[4-(methoxymethyl)-1H-1,2,3-triazol-1-yl]-N-(4-{[7-(propan-2-yl)-7H-pyrrolo[2,3-d]pyrimidin-5-yl]carbonyl}pyridin-2-yl)acetamide] | 1.55
CC(C)n1cc(C(=O)c2ccnc(NC(=O)Cc3ccc(F)cc3F)c2)c2cncnc21 [Example 118, 2-(2,4-difluorophenyl)-N-(4-{[7-(propan-2-yl)-7H-pyrrolo[2,3-d]pyrimidin-5-yl]carbonyl}pyridin-2-yl)acetamide] | 0.00882
CC(C)n1cc(C(=O)c2ccnc(NC(=O)Cc3ccccc3OC(F)(F)F)c2)c2cncnc21 [Example 119, N-(4-{[7-(propan-2-yl)-7H-pyrrolo[2,3-d]pyrimidin-5-yl]carbonyl}pyridin-2-yl)-2-[2-(trifluoromethoxy)phenyl]acetamide] | 0.0711
Cc1cn(CC(=O)Nc2cc(C(=O)c3cn(C(C)C)c4ncncc34)ccn2)nn1 [Example 121, 2-(4-methyl-1H-1,2,3-triazol-1-yl)-N-(4-{[7-(propan-2-yl)-7H-pyrrolo[2,3-d]pyrimidin-5-yl]carbonyl}pyridin-2-yl)acetamide] | 0.328
Cc1cc(C(F)(F)F)nn1CC(=O)Nc1cc(C(=O)c2cn(C(C)C)c3nc(O)ncc23)ccn1 [Example 125, N-(4-{[2-hydroxy-7-(propan-2-yl)-7H-pyrrolo[2,3-d]pyrimidin-5-yl]carbonyl}pyridin-2-yl)-2-[5-methyl-3-(trifluoromethyl)-1H-pyrazol-1-yl]acetamide] | 0.25
Cc1cc(C)n(CC(=O)Nc2cc(C(=O)c3cn(CC(C)(C)O)c4ncncc34)ccn2)n1 [Example 127, 2-(3,5-dimethyl-1H-pyrazol-1-yl)-N-(4-{[7-(2-hydroxy-2-methylpropyl)-7H-pyrrolo[2,3-d]pyrimidin-5-yl]carbonyl}pyridin-2-yl)acetamide] | 1.11
Cc1ccn(CC(=O)Nc2cc(C(=O)c3cn(CCO)c4ncncc34)ccn2)n1 [Example 128, N-(4-{[7-(2-hydroxyethyl)-7H-pyrrolo[2,3-d]pyrimidin-5-yl]carbonyl}pyridin-2-yl)-2-(3-methyl-1H-pyrazol-1-yl)acetamide] | 1.23
CC(C)c1cn(CC(=O)Nc2cc(C(=O)c3cn(CCO)c4ncncc34)ccn2)nn1 [Example 129, N-(4-{[7-(2-hydroxyethyl)-7H-pyrrolo[2,3-d]pyrimidin-5-yl]carbonyl}pyridin-2-yl)-2-[4-(propan-2-yl)-1H-1,2,3-triazol-1-yl]acetamide] | 0.201
Cc1ccnn1CC(=O)Nc1cc(C(=O)c2cn(CCO)c3ncncc23)ccn1 [Example 130, N-(4-{[7-(2-hydroxyethyl)-7H-pyrrolo[2,3-d]pyrimidin-5-yl]carbonyl}pyridin-2-yl)-2-(5-methyl-1H-pyrazol-1-yl)acetamide] | 1.75
Cc1cc(C(F)(F)F)nn1CC(=O)Nc1cc(C(=O)c2cn(CCO)c3ncncc23)ccn1 [Example 132, N-(4-{[7-(2-hydroxyethyl)-7H-pyrrolo[2,3-d]pyrimidin-5-yl]carbonyl}pyridin-2-yl)-2-[5-methyl-3-(trifluoromethyl)-1H-pyrazol-1-yl]acetamide] | 0.0482
Cc1cn(CC(=O)Nc2cc(C(=O)c3cn(CCO)c4ncncc34)ccn2)nn1 [Example 133, N-(4-{[7-(2-hydroxyethyl)-7H-pyrrolo[2,3-d]pyrimidin-5-yl]carbonyl}pyridin-2-yl)-2-(4-methyl-1H-1,2,3-triazol-1-yl)acetamide] | 9.38
O=C(Cn1cc(C(F)(F)F)nn1)Nc1cc(C(=O)c2cn(CCO)c3ncncc23)ccn1 [Example 137, N-(4-{[7-(2-hydroxyethyl)-7H-pyrrolo[2,3-d]pyrimidin-5-yl]carbonyl}pyridin-2-yl)-2-[4-(trifluoromethyl)-1H-1,2,3-triazol-1-yl]acetamide] | 0.188

Now from value to compound:

IC50 [µM] | Compound
0.467 | CC(CO)(CO)n1cc(C(=O)c2cc(NC(=O)Cc3ccc(C#N)cc3)ccn2)c2cncnc21 [Example 107, 2-(4-cyanophenyl)-N-(2-{[7-(1,3-dihydroxy-2-methylpropan-2-yl)-7H-pyrrolo[2,3-d]pyrimidin-5-yl]carbonyl}pyridin-4-yl)acetamide]
0.369 | Cc1cc(C(F)(F)F)nn1CC(=O)Nc1ccnc(C(=O)c2cn(C(C)(CO)CO)c3ncncc23)c1 [Example 108, N-(2-{[7-(1,3-dihydroxy-2-methylpropan-2-yl)-7H-pyrrolo[2,3-d]pyrimidin-5-yl]carbonyl}pyridin-4-yl)-2-[5-methyl-3-(trifluoromethyl)-1H-pyrazol-1-yl]acetamide]
0.0536 | CC(C)n1cc(C(=O)c2cc(NC(=O)Cc3ccc(C#N)cn3)ccn2)c2cncnc21 [Example 109, 2-(5-Cyanopyridin-2-yl)-N-{2-[(7-isopropyl-7H-pyrrolo[2,3-d]pyrimidin-5-yl)carbonyl]pyridin-4-yl}acetamide]
0.0318 | CC(C)(CO)n1cc(C(=O)c2ccnc(NC(=O)Cc3ccc(C#N)cc3)c2)c2cncnc21 [Example 111, 2-(4-cyanophenyl)-N-(4-{[7-(1-hydroxy-2-methylpropan-2-yl)-7H-pyrrolo[2,3-d]pyrimidin-5-yl]carbonyl}pyridin-2-yl)acetamide]
0.0589 | O=C(Cc1ccc(Cl)cc1)Nc1cc(C(=O)c2cn(C(CO)CO)c3ncncc23)ccn1 [Example 113, 2-(4-Chlorophenyl)-N-[4-({7-[2-hydroxy-1-(hydroxymethyl)ethyl]-7H-pyrrolo[2,3-d]pyrimidin-5-yl}carbonyl)pyridin-2-yl]acetamide]
0.536 | N#Cc1ccc(CC(=O)Nc2cc(C(=O)c3cn(C(CO)CO)c4ncncc34)ccn2)cc1 [Example 114, 2-(4-cyanophenyl)-N-(4-{[7-(1,3-dihydroxypropan-2-yl)-7H-pyrrolo[2,3-d]pyrimidin-5-yl]carbonyl}pyridin-2-yl)acetamide]
0.126 | O=C(Cc1ccc(Cl)cc1)Nc1cc(C(=O)c2cn(CC3(CO)COC3)c3ncncc23)ccn1 [Example 115, 2-(4-Chlorophenyl)-N-{4-[(7-{[3-(hydroxymethyl)oxetan-3-yl]methyl}-7H-pyrrolo[2,3-d]pyrimidin-5-yl)carbonyl}pyridin-2-yl]acetamide]
0.0186 | CC(C)n1cc(C(=O)c2ccnc(NC(=O)Cc3ccc(OC(F)(F)F)cc3)c2)c2cncnc21 [Example 120, N-(4-{[7-(propan-2-yl)-7H-pyrrolo[2,3-d]pyrimidin-5-yl]carbonyl}pyridin-2-yl)-2-[4-(trifluoromethoxy)phenyl]acetamide]
0.00424 | CC(C)n1cc(C(=O)c2ccnc(NC(=O)Cc3ccc(C(F)(F)F)cc3)c2)c2cncnc21 [Example 122, N-(4-{[7-(propan-2-yl)-7H-pyrrolo[2,3-d]pyrimidin-5-yl]carbonyl}pyridin-2-yl)-2-[4-(trifluoromethyl)phenyl]acetamide]
0.0421 | CC(C)n1cc(C(=O)c2ccnc(NC(=O)Cc3cccc(S(C)(=O)=O)c3)c2)c2cncnc21 [Example 123, 2-[3-(methylsulfonyl)phenyl]-N-(4-{[7-(propan-2-yl)-7H-pyrrolo[2,3-d]pyrimidin-5-yl]carbonyl}pyridin-2-yl)acetamide]
0.0151 | CC(C)n1cc(C(=O)c2ccnc(NC(=O)Cc3ccc(C(F)(F)F)c(F)c3)c2)c2cncnc21 [Example 124, 2-[3-fluoro-4-(trifluoromethyl)phenyl]-N-(4-{[7-(propan-2-yl)-7H-pyrrolo[2,3-d]pyrimidin-5-yl]carbonyl}pyridin-2-yl)acetamide]
1.11 | CS(=O)(=O)c1cccc(CC(=O)Nc2cc(C(=O)c3cn(CCO)c4ncncc34)ccn2)c1 [Example 131, N-(4-{[7-(2-hydroxyethyl)-7H-pyrrolo[2,3-d]pyrimidin-5-yl]carbonyl}pyridin-2-yl)-2-[3-(methylsulfonyl)phenyl]acetamide]
0.583 | O=C(Cc1ccccc1OC(F)(F)F)Nc1cc(C(=O)c2cn(CCO)c3ncncc23)ccn1 [Example 134, N-(4-{[7-(2-hydroxyethyl)-7H-pyrrolo[2,3-d]pyrimidin-5-yl]carbonyl}pyridin-2-yl)-2-[2-(trifluoromethoxy)phenyl]acetamide]
0.0215 | O=C(Cc1cccc(OC(F)(F)F)c1)Nc1cc(C(=O)c2cn(CCO)c3ncncc23)ccn1 [Example 135, N-(4-{[7-(2-hydroxyethyl)-7H-pyrrolo[2,3-d]pyrimidin-5-yl]carbonyl}pyridin-2-yl)-2-[3-(trifluoromethoxy)phenyl]acetamide]
0.0258 | O=C(Cc1ccc(Cl)cc1)Nc1cc(C(=O)c2cn(CCO)c3ncncc23)ccn1 [Example 136, 2-(4-chlorophenyl)-N-(4-{[7-(2-hydroxyethyl)-7H-pyrrolo[2,3-d]pyrimidin-5-yl]carbonyl}pyridin-2-yl)acetamide]
0.0311 | O=C(Cc1ccc(Cl)c(Cl)c1)Nc1cc(C(=O)c2cn(CCO)c3ncncc23)ccn1 [Example 138, 2-(3,4-dichlorophenyl)-N-(4-{[7-(2-hydroxyethyl)-7H-pyrrolo[2,3-d]pyrimidin-5-yl]carbonyl}pyridin-2-yl)acetamide]
